The numbers were not newly measured in patent US11311853B2, “Process for the preparation of double crosslinked core-shell polymeric nanoparticles for multimodal imaging and theranostic applications” (FONDAZIONE ISTITUTO ITALIANO DI TECNOLOGIA, priority 2017, dated 2022), which cites them from elsewhere.

The conditions of the data set: commercial Gd-DTPA.

Take `O=C([O-])CN(CCN(CC(=O)[O-])CC(=O)O)CCN(CC(=O)[O-])CC(=O)O.[Gd+3]` [Gd-DTPA, Gd-diethylenetriaminepentaacetic acid]: the relaxivity in MRI is 4 mM⁻¹ s⁻¹.
